Experimental data from US20170326125A1, “MULTISUBSTITUTED AROMATIC COMPOUNDS AS INHIBITORS OF THROMBIN” (VERSEON CORPORATION, priority 2016, published 2017).

Each molecule was assayed against T1, Human thrombin (Homo sapiens, UniProt P00734) (assay: Inhibition of the protease activity of thrombin (chromogenic substrate S-2238)). Conditions: Table C; 3 nM thrombin, 125 μM S-2238, 10 min pre-incubation, RT.
T1 construct: purchased Haematologic Technologies Inc
Assay type: biochemical
Experimental: Compounds described herein can be assayed, by a variety of methods known in the art and described herein, for inhibition of biological activity, e.g., protease activity, of a variety of proteins, e.g., thrombin.
The thrombin activity reported herein (e.g., Table A) was obtained as follows. Human thrombin was obtained from Haematologic Technologies Inc. The chromogenic
Thrombin was assayed in buffer containing 0.05 M Tris (pH 7.4), 0.015 M NaCl and 0.01% PEG-8000. The final concentration of enzyme used was 3 nM thrombin. […] All assays were performed in 96-well microtiter plates at room temperature (RT). […] Inhibitor IC50 values were determined by adding test compound as ten point, three-fold serial dilutions in buffer solution, as known in the art. The plate was read at 10 minutes after substrate addition. The IC50 was calculated by plotting the percent (%) inhibition against compound concentration and fitting the data to a constrained four parameter sigmoidal curve, as known in the art.

Nc1nc(-c2cccnc2)n[nH]1 [Cmpd 1, 3-(pyridin-3-yl)-1H-1,2,4-triazol-5-amine] and Nc1nc(-c2ccco2)n[nH]1 [Cmpd 25, 3-(furan-2-yl)-1H-1,2,4-triazol-5-amine] cannot be ordered by IC50: over 1000 nM for the first, over 1000 nM for the second.

Nc1n[nH]c(-c2ccccn2)n1 [Cmpd 2, 3-(pyridin-2-yl)-1H-1,2,4-triazol-5-amine] and Nc1n[nH]c(-c2ccncc2)n1 [Cmpd 3, 3-(pyridin-4-yl)-1H-1,2,4-triazol-5-amine] cannot be ordered by IC50: over 1000 nM for the first, over 1000 nM for the second.

For CCC(=O)n1nc(-c2cccnc2)nc1NCc1cccc(F)c1 [Cmpd 8, 1-(5-[(3-fluorophenyl)methyl]amino-3-(pyridin-3-yl)-1H-1,2,4-triazol-1-yl)propan-1-one], the IC50 was 100 to 1000 nM.

Same assay, conditions: inhibition of the protease activity of thrombin; class symbols a/b/c

Fc1ccc(CNc2nc(-c3cccnc3)n[nH]2)cc1 [Cmpd 4] and CNC(=O)n1nc(-c2cccnc2)nc1NCc1ccc(F)cc1 [Cmpd 19] cannot be ordered by IC50: over 1000 nM for the first, over 1000 nM for the second.

First: CCC(=O)n1nc(-c2cccnc2)nc1NCc1ccccc1F [Cmpd 9]
Second: CCC(=O)n1nc(-c2cccnc2)nc1NCCc1ccccc1 [Cmpd 22]
The IC50 of the first is lower: 100 to 1000 nM for the first, over 1000 nM for the second. The first is the more potent here.

Compared with CCC(=O)n1nc(-c2cccnc2)nc1NCc1ccc(C#N)cc1 [Cmpd 10], COC(=O)n1nc(-c2cccnc2)nc1NCc1ccc(F)cc1 [Cmpd 20] is lower in IC50: over 1000 nM for the first, 100 to 1000 nM for the second.

O=C(c1ccccc1)n1nc(-c2ccncc2)nc1NCc1ccc(F)cc1 [Cmpd 14] and O=C(Cc1ccccc1)n1nc(-c2ccncc2)nc1NCc1ccc(F)cc1 [Cmpd 77, 1-(5-[(4-fluorophenyl)methyl]amino-3-(pyridin-4-yl)-1H-1,2,4-triazol-1-yl)-2-phenylethan-1-one] cannot be ordered by IC50: under 100 nM for the first, under 100 nM for the second.

O=C(c1ccsc1)n1nc(-c2ccncc2)nc1NCc1ccc(F)cc1 [Cmpd 15] and CCC(=O)n1nc(-c2ccncc2)nc1NCc1ccc(F)cc1 [Cmpd 81, 1-(5-[(4-fluorophenyl)methyl]amino-3-(pyridin-4-yl)-1H-1,2,4-triazol-1-yl)propan-1-one] cannot be ordered by IC50: under 100 nM for the first, under 100 nM for the second.

COc1ccc(CNc2nc(-c3ccncc3)nn2C(=O)C(C)(C)C)cc1 [Cmpd 16] and CC(C)(C)C(=O)n1nc(-c2ccncc2)nc1NCc1ccc(F)cc1 [Cmpd 75, 1-(5-[(4-fluorophenyl)methyl]amino-3-(pyridin-4-yl)-1H-1,2,4-triazol-1-yl)-2,2-dimethylpropan-1-one] cannot be ordered by IC50: under 100 nM for the first, under 100 nM for the second.

First: O=C(N1CCOCC1)n1nc(-c2cccnc2)nc1NCc1ccc(F)cc1 [Cmpd 17]
Second: CC(C)(C)C(=O)n1nc(-c2cccnc2)nc1NCc1ccc(F)cc1 [Cmpd 71, 1-(5-[(4-fluorophenyl)methyl]amino-3-(pyridin-3-yl)-1H-1,2,4-triazol-1-yl)-2,2-dimethylpropan-1-one]
The IC50 of the first is higher: over 1000 nM for the first, under 100 nM for the second.

O=C(Nc1ccccc1F)n1nc(-c2cccnc2)nc1NCc1ccc(F)cc1 [Cmpd 18] and O=C(Cn1nc(-c2cccnc2)nc1NCc1ccc(F)cc1)c1ccccc1 [Cmpd 21] cannot be ordered by IC50: over 1000 nM for the first, over 1000 nM for the second.

CCC(=O)n1nc(-c2cccnc2)nc1NCCN1CCOCC1 [Cmpd 23] and CCC(=O)n1nc(-c2cccnc2)nc1N(C)C [Cmpd 24] cannot be ordered by IC50: over 1000 nM for the first, over 1000 nM for the second.

Compared with COc1ccccc1C(=O)n1nc(-c2ccco2)nc1NCc1ccc(F)cc1 [Cmpd 26], COc1ccccc1C(=O)n1nc(-c2cccs2)nc1NCc1ccc(F)cc1 [Cmpd 27] is higher in IC50: under 100 nM for the first, 100 to 1000 nM for the second.

COc1ccccc1C(=O)n1nc(-c2ccncn2)nc1NCc1ccccc1 [Cmpd 33] and COc1ccccc1C(=O)n1nc(-c2cncnc2)nc1NCc1ccccc1 [Cmpd 34] cannot be ordered by IC50: under 100 nM for the first, under 100 nM for the second.

COc1ccccc1C(=O)n1nc(-c2ncccn2)nc1NCc1ccccc1 [Cmpd 35] and O=C(Cc1ccccc1)n1nc(-c2ccccn2)nc1NCc1ccc(F)cc1 [Cmpd 66, 1-(5-[(4-fluorophenyl)methyl]amino-3-(pyridin-2-yl)-1H-1,2,4-triazol-1-yl)-2-phenylethan-1-one] cannot be ordered by IC50: under 100 nM for the first, under 100 nM for the second.

First: Cc1c(-c2ccccc2)nn(C(=O)C(C)(C)C)c1NCc1ccc(F)cc1 [Cmpd 38]
Second: CC(C)(C)C(=O)n1nc(-c2cccs2)nc1NCc1ccc(F)cc1 [Cmpd 82, 1-(5-[(4-fluorophenyl)methyl]amino-3-(thiophen-2-yl)-1H-1,2,4-triazol-1-yl)-2,2-dimethylpropan-1-one]
The IC50 of the first is higher: over 1000 nM for the first, under 100 nM for the second.

Compared with O=C(c1ccccc1Cl)n1nc(-c2ccccn2)cc1NCc1ccc(F)cc1 [Cmpd 41], Fc1ccc(CNc2cc(-c3ccccn3)nn2-c2ccccc2Cl)cc1 [Cmpd 45] is higher in IC50: 100 to 1000 nM for the first, over 1000 nM for the second. The first is the more potent here.

Nc1cc(-c2ccccn2)nn1-c1ccccc1Cl [Cmpd 42] and O=C(Nc1cc(-c2ccccn2)nn1-c1ccccc1Cl)c1ccc(F)cc1 [Cmpd 43] cannot be ordered by IC50: over 1000 nM for the first, over 1000 nM for the second.

Compared with Fc1ccc(CN(Cc2ccc(F)cc2)c2cc(-c3ccccn3)nn2-c2ccccc2Cl)cc1 [Cmpd 44], O=C(CCc1ccccc1)n1nc(-c2ccccn2)nc1NCc1ccc(F)cc1 [Cmpd 68, 1-(5-[(4-fluorophenyl)methyl]amino-3-(pyridin-2-yl)-1H-1,2,4-triazol-1-yl)-3-phenylpropan-1-one] is lower in IC50: over 1000 nM for the first, under 100 nM for the second.

CCOC(=O)c1cn(-c2ccccn2)nc1NCc1ccc(F)cc1 [Cmpd 46] and CCC(=O)c1cn(-c2ccccn2)nc1NCc1ccc(F)cc1 [Cmpd 50] cannot be ordered by IC50: over 1000 nM for the first, over 1000 nM for the second.

O=C(O)c1cn(-c2ccccn2)nc1NCc1ccc(F)cc1 [Cmpd 47] and CC(=O)c1cn(-c2ccccn2)nc1NCc1ccc(F)cc1 [Cmpd 60, 1-(3-[(4-fluorophenyl)methyl]amino-1-(pyridin-2-yl)-1H-pyrazol-4-yl)ethan-1-one] cannot be ordered by IC50: over 1000 nM for the first, over 1000 nM for the second.

CON(C)C(=O)c1cn(-c2ccccn2)nc1NCc1ccc(F)cc1 [Cmpd 48] and CN(C)C(=O)c1cn(-c2ccccn2)nc1NCc1ccc(F)cc1 [Cmpd 49] cannot be ordered by IC50: over 1000 nM for the first, over 1000 nM for the second.

CCOC(=O)c1cc(-c2ccccn2)nn1CCc1ccc(F)cc1 [Cmpd 51] and O=C(O)c1cc(-c2ccccn2)nn1CCc1ccc(F)cc1 [Cmpd 52] cannot be ordered by IC50: over 1000 nM for the first, over 1000 nM for the second.

CON(C)C(=O)c1cc(-c2ccccn2)nn1CCc1ccc(F)cc1 [Cmpd 53] and CCC(O)c1cc(-c2ccccn2)nn1CCc1ccc(F)cc1 (stereo not drawn) [Cmpd 55] cannot be ordered by IC50: over 1000 nM for the first, over 1000 nM for the second.

O=C(c1cc(-c2ccccn2)nn1CCc1ccc(F)cc1)N1CCCCC1 [Cmpd 54] and O=C(c1cc(-c2ccccn2)n(CCc2ccc(F)cc2)n1)N1CCCCC1 [Cmpd 59] cannot be ordered by IC50: over 1000 nM for the first, over 1000 nM for the second.

CCOC(=O)c1cc(-c2ccccn2)n(CCc2ccc(F)cc2)n1 [Cmpd 57] and O=C(O)c1cc(-c2ccccn2)n(CCc2ccc(F)cc2)n1 [Cmpd 58] cannot be ordered by IC50: over 1000 nM for the first, over 1000 nM for the second.

CC(=O)c1cn(-c2ccccc2)nc1NCc1ccc(F)cc1 [Cmpd 61, 1-(3-[(4-fluorophenyl)methyl]amino-1-phenyl-1H-pyrazol-4-yl)ethan-1-one] and CCC(=O)c1cn(-c2ccccc2)nc1NCc1ccc(F)cc1 [Cmpd 62, 1-(3-[(4-fluorophenyl)methyl]amino-1-phenyl-1H-pyrazol-4-yl)propan-1-one] cannot be ordered by IC50: over 1000 nM for the first, over 1000 nM for the second.

CCC(=O)n1nc(-c2ccco2)nc1NCc1ccc(F)cc1 [Cmpd 63, 1-(5-[(4-fluorophenyl)methyl]amino-3-(furan-2-yl)-1H-1,2,4-triazol-1-yl)propan-1-one] and CCCC(=O)n1nc(-c2ccccn2)nc1NCc1ccc(F)cc1 [Cmpd 69, 1-(5-[(4-fluorophenyl)methyl]amino-3-(pyridin-2-yl)-1H-1,2,4-triazol-1-yl)butan-1-one] cannot be ordered by IC50: under 100 nM for the first, under 100 nM for the second.

CC(C)CC(=O)n1nc(-c2ccccn2)nc1NCc1ccc(F)cc1 [Cmpd 67, 1-(5-[(4-fluorophenyl)methyl]amino-3-(pyridin-2-yl)-1H-1,2,4-triazol-1-yl)-3-methylbutan-1-one] and CC(C)CC(=O)n1nc(-c2ccncc2)nc1NCc1ccc(F)cc1 [Cmpd 78, 1-(5-[(4-fluorophenyl)methyl]amino-3-(pyridin-4-yl)-1H-1,2,4-triazol-1-yl)-3-methylbutan-1-one] cannot be ordered by IC50: under 100 nM for the first, under 100 nM for the second.

CC(C)(C)C(=O)Cn1nc(-c2cccnc2)nc1NCc1ccc(F)cc1 [Cmpd 72, 1-(5-[(4-fluorophenyl)methyl]amino-3-(pyridin-3-yl)-1H-1,2,4-triazol-1-yl)-3,3-dimethylbutan-2-one] and CC(=O)Cn1nc(-c2cccnc2)nc1NCc1ccc(F)cc1 [Cmpd 73, 1-(5-[(4-fluorophenyl)methyl]amino-3-(pyridin-3-yl)-1H-1,2,4-triazol-1-yl)propan-2-one] cannot be ordered by IC50: over 1000 nM for the first, over 1000 nM for the second.

Going from CCC(=O)n1nc(-c2cccnc2)cc1NCc1ccc(F)cc1 [Cmpd 74, 1-(5-[(4-fluorophenyl)methyl]amino-3-(pyridin-3-yl)-1H-pyrazol-1-yl)propan-1-one] to CCCC(=O)n1nc(-c2ccncc2)nc1NCc1ccc(F)cc1 [Cmpd 80, 1-(5-[(4-fluorophenyl)methyl]amino-3-(pyridin-4-yl)-1H-1,2,4-triazol-1-yl)butan-1-one], the IC50 falls from over 1000 nM to under 100 nM. The second is the more potent here.

CC(C)C(=O)n1nc(-c2ccncc2)nc1NCc1ccc(F)cc1 [Cmpd 76, 1-(5-[(4-fluorophenyl)methyl]amino-3-(pyridin-4-yl)-1H-1,2,4-triazol-1-yl)-2-methylpropan-1-one] and O=C(CCc1ccccc1)n1nc(-c2ccncc2)nc1NCc1ccc(F)cc1 [Cmpd 79, 1-(5-[(4-fluorophenyl)methyl]amino-3-(pyridin-4-yl)-1H-1,2,4-triazol-1-yl)-3-phenylpropan-1-one] cannot be ordered by IC50: under 100 nM for the first, under 100 nM for the second.
